# Assay results: patent US20260356856A1, “KRAS G12S AND G12C INHIBITORS” (MIRATI THERAPEUTICS, INC., priority 2023, published 2026)
# How the values were obtained:
# KRas G12C = molecular target: T1, KRas G12C (Homo sapiens, UniProt P01116, G12C); assay: KRas binding assay, TR-FRET displacement of Cy5 labelled tracer; conditions: 60-minute incubation at room temperature, 1% DMSO, pH 7.5
# T1 construct: Biotinylated KRas (corresponding to amino acids 1-169, produced at Accelegan Inc.); biotin (biotinylated); purchased Accelegan Inc
# Summary of the method: (§1)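 Truncated KRas (1-169), biotinylated, Tb-streptavidin donor; one-hour room-temperature incubation; IC50 by four-parameter curve fitting.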
# KRas WT = molecular target: T2, KRas WT (Homo sapiens, UniProt P01116); assay: as above; conditions: 60-minute incubation at room temperature, 1% DMSO, pH 7.5
# T2 construct: Biotinylated KRas (corresponding to amino acids 1-169, produced at Accelegan Inc.); biotin (biotinylated); purchased Accelegan Inc
# Summary of the method: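 Biotinylated KRas (aa 1-169) incubated with Cy5-labelled tracer, terbium streptavidin and compound (1% DMSO final) in 50 mM HEPES pH 7.5, 5 mM MgCl2, 0.005% Tween-20, 1 mM DTT. Tracer displacement read by TR-FRET after 60 min at room temperature; POC values fitted to 4-parameter IC50 equation.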
# KRas G12S = molecular target: T3, KRas G12S (Homo sapiens, UniProt P01116, G12S); assay: as above; conditions: 60-minute incubation at room temperature, 1% DMSO, pH 7.5
# T3 construct: Biotinylated KRas (corresponding to amino acids 1-169, produced at Accelegan Inc.); biotin (biotinylated); purchased Accelegan Inc
# Summary of the method: as §1
# [1] = molecular target: T4, KRas-mediated phosphorylation of ERK in A549 cells (Homo sapiens, UniProt P01116, G12S); assay: Inhibition of KRas-mediated phosphorylation of ERK (HTRF), A549 cells; format: cell-based; conditions: HTRF pERK, 3 h incubation
# T4 construct: pERK HTRF read-out
# [2] = molecular target: T5, KRas-mediated phosphorylation of ERK in MKN1 cells (Homo sapiens, UniProt P01116); assay: Inhibition of KRas-mediated phosphorylation of ERK (HTRF), MKN1 cells; format: cell-based; conditions: MKN1 cells (KRas WT); HTRF pERK; 3 h incubation
# T5 construct: pERK HTRF read-out
# Protocol: Inhibition of KRas Phosphorylation of ERK (HTRF) by Exemplary Compounds of Formula (Ia) or (Ib)
# Cisbio HTRF Advanced pERK Assay Catalog #64AERPEH • Cells: MKN1, PSN1 • Procedure: • 1. Day 1: Seed 6,000 cells/well −25 μl/well in 384-well white solid bottom plate; RPM1_10% FBS. Incubate overnight at 37 °C/5% CO2. • 2.
# T3 sequence (P01116 1-169 isoform P01116-2 G12S): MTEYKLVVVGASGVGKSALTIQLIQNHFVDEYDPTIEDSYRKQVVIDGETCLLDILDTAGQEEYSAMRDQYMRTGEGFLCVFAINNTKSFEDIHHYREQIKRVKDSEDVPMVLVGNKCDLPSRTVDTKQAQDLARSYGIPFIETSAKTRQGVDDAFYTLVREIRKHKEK
# T4 sequence (P01116 1-188 isoform P01116-2 G12S): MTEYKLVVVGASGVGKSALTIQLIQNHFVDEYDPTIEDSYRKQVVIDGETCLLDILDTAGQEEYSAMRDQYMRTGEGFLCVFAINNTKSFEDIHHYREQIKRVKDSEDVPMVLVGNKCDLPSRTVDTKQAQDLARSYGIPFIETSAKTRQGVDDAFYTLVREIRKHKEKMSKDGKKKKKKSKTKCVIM
# T2 sequence (P01116 1-169 isoform P01116-2): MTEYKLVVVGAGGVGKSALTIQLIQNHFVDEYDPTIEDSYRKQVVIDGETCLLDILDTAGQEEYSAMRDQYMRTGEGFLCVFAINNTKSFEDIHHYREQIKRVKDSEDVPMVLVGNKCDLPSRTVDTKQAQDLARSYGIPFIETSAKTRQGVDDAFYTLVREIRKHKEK
# T5 sequence (P01116 1-188 isoform P01116-2): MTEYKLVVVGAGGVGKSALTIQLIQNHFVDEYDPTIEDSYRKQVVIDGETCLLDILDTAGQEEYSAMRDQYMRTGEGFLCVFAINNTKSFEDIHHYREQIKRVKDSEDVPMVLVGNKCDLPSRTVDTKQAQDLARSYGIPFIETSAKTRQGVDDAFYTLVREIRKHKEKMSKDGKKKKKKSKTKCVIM
# T1 sequence (P01116 1-169 isoform P01116-2 G12C): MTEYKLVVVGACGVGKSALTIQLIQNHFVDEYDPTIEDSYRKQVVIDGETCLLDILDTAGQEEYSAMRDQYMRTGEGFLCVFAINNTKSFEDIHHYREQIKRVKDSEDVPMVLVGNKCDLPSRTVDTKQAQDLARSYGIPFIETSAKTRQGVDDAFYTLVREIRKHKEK
IC50 (KRas G12C) [nM],IC50 (KRas WT) [nM],IC50 (KRas G12S) [nM],IC50 [1] [nM],IC50 [2] [nM],Compound
29,31,27,772,54,"Cc1ccn(C(=O)C2CCCCCN(c3nc(OC[C@@]45CCCN4C[C@H](F)C5)nc4c(F)c(-c5ccc(F)c6sc(N)c(C#N)c56)c(Cl)cc34)C2)n1 (stereo partly drawn) [Example 173, 2-amino-4-(6-chloro-8-fluoro-2-(((2R,7aS)-2-fluorotetrahydro-1H-pyrrolizin-7a(5H)-yl)methoxy)-4-(3-(3-methyl-1H-pyrazole-1-carbonyl)azocan-1-yl)quinazolin-7-yl)-7-fluorobenzo[b]thiophene-3-carbonitrile]"
395,125,201,2120,2850,"CCc1c(F)ccc2cc(O)cc(-c3ncc4c(N5CCC(C(=O)n6ccc(C)n6)C6CC65)nc(OC[C@@]56CCCN5C[C@H](F)C6)nc4c3F)c12 (stereo partly drawn) [Example 97, (2-(7-(8-ethyl-7-fluoro-3-hydroxynaphthalen-1-yl)-8-fluoro-2-(((2R,7aS)-2-fluorotetrahydro-1H-pyrrolizin-7a(5H)-yl)methoxy)pyrido[4,3-d]pyrimidin-4-yl)-2-azabicyclo[4.1.0]heptan-5-yl)(3-methyl-1H-pyrazol-1-yl)methanone]"
16,45,37,1210,45,"CCc1c(F)ccc2cc(O)cc(N3CCc4c(nc(OC[C@@]56CCCN5C[C@H](F)C6)nc4N4CCCCC(C(=O)n5ccc(C)n5)C4)C3)c12 (stereo partly drawn) [Example 147, (1-(7-(8-ethyl-7-fluoro-3-hydroxynaphthalen-1-yl)-2-(((2R,7aS)-2-fluorotetrahydro-1H-pyrrolizin-7a(5H)-yl)methoxy)-5,6,7,8-tetrahydropyrido[3,4-d]pyrimidin-4-yl)azepan-3-yl)(3-methyl-1H-pyrazol-1-yl)methanone]"
375,162,339,> 10000,> 10000,"CCc1c(F)ccc2cc(O)cc(-c3ncc4c(N5C[C@H](C(=O)n6ccc(C)n6)[C@@H](C)C5)nc(OC[C@@]56CCCN5C[C@H](F)C6)nc4c3F)c12 [Example 96, ((3R,4R)-1-(7-(8-ethyl-7-fluoro-3-hydroxynaphthalen-1-yl)-8-fluoro-2-(((2R,7aS)-2-fluorotetrahydro-1H-pyrrolizin-7a(5H)-yl)methoxy)pyrido[4,3-d]pyrimidin-4-yl)-4-methylpyrrolidin-3-yl)(3-methyl-1H-pyrazol-1-yl)methanone]"
365,1580,1680,> 10000,4060,"CCc1c(F)ccc2cc(O)cc(-c3ncc4c(N5CC6(C(=O)n7ccc(C)n7)CCCC5C6)nc(OC[C@@]56CCCN5C[C@H](F)C6)nc4c3F)c12 (stereo partly drawn) [Example 87, (6-(7-(8-ethyl-7-fluoro-3-hydroxynaphthalen-1-yl)-8-fluoro-2-(((2R,7aS)-2-fluorotetrahydro-1H-pyrrolizin-7a(5H)-yl)methoxy)pyrido[4,3-d]pyrimidin-4-yl)-6-azabicyclo[3.2.1]octan-1-yl)(3-methyl-1H-pyrazol-1-yl)methanone]"
171,402,183,> 10000,> 10000,"CCc1c(F)ccc2cc(O)cc(-c3ncc4c(N5CC(C(=O)n6ccc(C)n6)C6(CC6)C5)nc(OC[C@@]56CCCN5C[C@H](F)C6)nc4c3F)c12 (stereo partly drawn) [Example 119, (5-(7-(8-ethyl-7-fluoro-3-hydroxynaphthalen-1-yl)-8-fluoro-2-(((2R,7aS)-2-fluorotetrahydro-1H-pyrrolizin-7a(5H)-yl)methoxy)pyrido[4,3-d]pyrimidin-4-yl)-5-azaspiro[2.4]heptan-7-yl)(3-methyl-1H-pyrazol-1-yl)methanone]"
142,1210,186,229,5380,"CCc1c(F)ccc2cc(O)cc(-c3ncc4c(N5CC6C(CC(=O)n7ccc(C)n7)C6C5)nc(OC[C@@]56CCCN5C[C@H](F)C6)nc4c3F)c12 (stereo partly drawn) [Example 120, 2-(3-(7-(8-ethyl-7-fluoro-3-hydroxynaphthalen-1-yl)-8-fluoro-2-(((2R,7aS)-2-fluorotetrahydro-1H-pyrrolizin-7a(5H)-yl)methoxy)pyrido[4,3-d]pyrimidin-4-yl)-3-azabicyclo[3.1.0]hexan-6-yl)-1-(3-methyl-1H-pyrazol-1-yl) ethan-1-one]"
3,59,17,1380,> 10000,"CCc1c(F)ccc2cc(O)cc(-c3ncc4c(NCC56CC(C(=O)n7ccc(C)n7)(C5)C6)nc(OC[C@@]56CCCN5C[C@H](F)C6)nc4c3F)c12 [Example 92, (3-(((7-(8-ethyl-7-fluoro-3-hydroxynaphthalen-1-yl)-8-fluoro-2-(((2R,7aS)-2-fluorotetrahydro-1H-pyrrolizin-7a(5H)-yl)methoxy)pyrido[4,3-d]pyrimidin-4-yl)amino)methyl)bicyclo[1.1.1]pentan-1-yl)(3-methyl-1H-pyrazol-1-yl)methanone]"
3740,1310,1470,> 10000,6530,"CCc1c(F)ccc2cc(O)cc(N3CCc4c(nc(OC[C@@]56CCCN5C[C@H](F)C6)nc4N4CCCC(C(=O)n5ccc(C)n5)CCC4)C3)c12 [Example 149, (1-(7-(8-ethyl-7-fluoro-3-hydroxynaphthalen-1-yl)-2-(((2R,7aS)-2-fluorotetrahydro-1H-pyrrolizin-7a(5H)-yl)methoxy)-5,6,7,8-tetrahydropyrido[3,4-d]pyrimidin-4-yl)azocan-5-yl)(3-methyl-1H-pyrazol-1-yl)methanone]"
310,229,203,1780,622,"CCc1c(F)ccc2cc(O)cc(-c3ncc4c(N5CCC(C(=O)N(C)C(=O)C(C)C)CC5)nc(OC[C@@]56CCCN5C[C@H](F)C6)nc4c3F)c12 [Example 166, 1-(7-(8-ethyl-7-fluoro-3-hydroxynaphthalen-1-yl)-8-fluoro-2-(((2R,7aS)-2-fluorotetrahydro-1H-pyrrolizin-7a(5H)-yl)methoxy)pyrido[4,3-d]pyrimidin-4-yl)-N-isobutyryl-N-methylpiperidine-4-carboxamide]"
339,1040,1320,2000,> 10000,"C#CCC1(C(=O)n2ccc(C)n2)CCN(c2nc(OC[C@@]34CCCN3C[C@H](F)C4)nc3c(F)c(-c4cc(O)cc5ccc(F)c(CC)c45)ncc23)C1 (stereo partly drawn) [Example 108, (1-(7-(8-ethyl-7-fluoro-3-hydroxynaphthalen-1-yl)-8-fluoro-2-(((2R,7aS)-2-fluorotetrahydro-1H-pyrrolizin-7a(5H)-yl)methoxy)pyrido[4,3-d]pyrimidin-4-yl)-3-(prop-2-yn-1-yl)pyrrolidin-3-yl)(3-methyl-1H-pyrazol-1-yl)methanone]"
58,–,26,54,1050,"CCc1c(F)ccc2cc(O)cc(-c3ncc4c(N5CC[C@H]6[C@@H](C5)[C@H]6C(=O)n5ccc(C)n5)nc(OC[C@@]56CCCN5C[C@H](F)C6)nc4c3F)c12 (stereo in doubt) [Example 99, (cis-3-(7-(8-ethyl-7-fluoro-3-hydroxynaphthalen-1-yl)-8-fluoro-2-(((2R,7aS)-2-fluorotetrahydro-1H-pyrrolizin-7a(5H)-yl)methoxy)pyrido[4,3-d]pyrimidin-4-yl)-3-azabicyclo[4.1.0]heptan-7-yl)(3-methyl-1H-pyrazol-1-yl)methanone]"
